The values below are quoted from earlier work in patent US11793177B2, “Animal model of Angelman Syndrome” (UNIVERSITY OF SOUTH FLORIDA, priority 2016, dated 2023).

In the data set the test system is GR. The conditions noted are these: treatment in adulthood; rodent.

`CC(/C=C/C(=O)NO)=C\[C@@H](C)C(=O)c1ccc(N(C)C)cc1` [TSA]: the “GR levels in the hippocampus” value is “increased”; the “repressive histone and methylation marks in the hippocampus” value is recorded as “reversed”.
